{"source": "patent US20250171438A1", "about": "(Agios Pharmaceuticals, Inc., priority 2022, published 2025)", "data": [{"target": "T1, human PAH with the R408W mutation (Homo sapiens, UniProt P00439, R408W)", "T1 construct": "expressed in transfected cells", "T1 sequence (P00439 1-452 R408W)": "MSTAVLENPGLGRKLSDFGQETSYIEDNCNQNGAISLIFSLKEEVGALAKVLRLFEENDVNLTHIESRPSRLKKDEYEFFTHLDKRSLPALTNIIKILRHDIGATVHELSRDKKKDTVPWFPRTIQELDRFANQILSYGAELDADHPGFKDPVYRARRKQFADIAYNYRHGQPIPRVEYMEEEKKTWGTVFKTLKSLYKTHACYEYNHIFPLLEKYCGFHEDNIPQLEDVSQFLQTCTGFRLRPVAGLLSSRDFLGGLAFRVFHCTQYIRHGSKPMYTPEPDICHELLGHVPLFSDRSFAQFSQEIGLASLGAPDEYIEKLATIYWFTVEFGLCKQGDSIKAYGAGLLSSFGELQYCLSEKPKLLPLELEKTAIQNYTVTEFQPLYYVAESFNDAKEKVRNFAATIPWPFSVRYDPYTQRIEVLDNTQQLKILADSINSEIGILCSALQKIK", "test": "Cell Based Phenylalanine Flux Assay", "conditions": "A375 cells expressing human R408W PAH; 24 hrs compound incubation; 13C-Tyrosine by LC-MS; average where tested multiple times; read-out: AC50", "units": {"AC50": "nM"}, "values": [{"smiles": "[2H][C@]1(c2nc3ccccc3s2)c2nc[nH]c2CCN1C(=O)c1ocnc1C", "note": "[Example 2160, [(4R)-4-(1,3-benzothiazol-2-yl)-4-deuterio-6,7-dihydro-1H-imidazo[4,5-c]pyridin-5-yl]-(4-methyloxazol-5-yl)methanone]", "AC50": "> 5000"}, {"smiles": "O=C(c1oc(CCN2CC(F)C2)nc1C(F)(F)F)N1CCc2[nH]cnc2[C@@H]1c1nc2ccccc2s1", "note": "[Example 1576, (R)-(4-(benzo[d]thiazol-2-yl)-6,7-dihydro-1H-imidazo[4,5-c]pyridin-5(4H)-yl)(2-(2-(3-fluoroazetidin-1-yl)ethyl)-4-(trifluoromethyl)oxazol-5-yl)methanone]", "AC50": "< 500"}, {"smiles": "O=C(c1nnc(-c2ccc(F)cn2)o1)N1CCc2[nH]cnc2[C@@H]1c1nc2c(F)cccc2s1", "note": "[Example 1712, (R)-(4-(4-fluorobenzo[d]thiazol-2-yl)-6,7-dihydro-1H-imidazo[4,5-c]pyridin-5(4H)-yl)(5-(5-fluoropyridin-2-yl)-1,3,4-oxadiazol-2-yl)methanone]", "AC50": "< 500"}, {"smiles": "O=C(c1ocnc1-c1ccccc1)N1CCc2[nH]cnc2[C@@H]1c1nc2c(F)cccc2s1", "note": "[Example 2178, (R)-(4-(4-fluorobenzo[d]thiazol-2-yl)-6,7-dihydro-1H-imidazo[4,5-c]pyridin-5(4H)-yl)(4-phenyloxazol-5-yl)methanone]", "AC50": "> 5000"}, {"smiles": "Cc1cccc2sc([C@@H]3c4nc[nH]c4CCN3C(=O)c3ocnc3C(F)F)nc12", "note": "[Example 2011]", "AC50": "< 500"}, {"smiles": "Cc1nc(C(C)(C)F)oc1C(=O)N1CCc2[nH]cnc2[C@@H]1c1nc2c(F)cccc2s1", "note": "[Example 1500, (R)-(4-(4-fluorobenzo[d]thiazol-2-yl)-6,7-dihydro-1H-imidazo[4,5-c]pyridin-5(4H)-yl)(2-(2-fluoropropan-2-yl)-4-methyloxazol-5-yl)methanone]", "AC50": "500 to 1000"}, {"smiles": "Cc1cccc2sc([C@@H]3c4nc[nH]c4CCN3C(=O)c3ocnc3C(F)(F)F)nc12", "note": "[Example 2009, (S)-(4-(4-methylbenzo[d]thiazol-2-yl)-6,7-dihydro-1H-imidazo[4,5-c]pyridin-5(4H)-yl)(4-(trifluoromethyl)oxazol-5-yl)methanone]", "AC50": "< 500"}, {"smiles": "O=C(c1cnn2ccccc12)N1CCc2nc[nH]c2[C@H]1c1nc2c(F)cccc2s1", "note": "[Example 1111, (S)-(4-(4-fluorobenzo[d]thiazol-2-yl)-6,7-dihydro-3H-imidazo[4,5-c]pyridin-5(4H)-yl)(pyrazolo[1,5-a]pyridin-3-yl)methanone]", "AC50": "500 to 1000"}, {"smiles": "O=C(CCC1CC1)N1CCc2[nH]cnc2[C@@H]1c1nc2ccc(F)cc2s1", "note": "[Example 1094, (R)-3-cyclopropyl-1-(4-(6-fluorobenzo[d]thiazol-2-yl)-6,7-dihydro-1H-imidazo[4,5-c]pyridin-5(4H)-yl)propan-1-one]", "AC50": "> 5000"}, {"smiles": "O=C(c1cnn(CC2CC2)c1Cl)N1CCc2[nH]cnc2[C@@H]1c1nc2c(F)cccc2s1", "note": "[Example 1972, (R)-(5-chloro-1-(cyclopropylmethyl)-1H-pyrazol-4-yl)(4-(4-fluorobenzo[d]thiazol-2-yl)-6,7-dihydro-1H-imidazo[4,5-c]pyridin-5(4H)-yl)methanone]", "AC50": "1000 to 5000"}, {"smiles": "O=C(c1nnc(-c2cnn(CC(F)F)c2)o1)N1CCc2[nH]cnc2[C@H]1c1nc2c(F)cccc2s1", "note": "[Example 1882, (S)-(5-(1-(2,2-difluoroethyl)-1H-pyrazol-4-yl)-1,3,4-oxadiazol-2-yl)(4-(4-fluorobenzo[d]thiazol-2-yl)-6,7-dihydro-1H-imidazo[4,5-c]pyridin-5(4H)-yl)methanone]", "AC50": "< 500"}, {"smiles": "O=C(c1nnc(-c2cnn(CC(F)F)c2)o1)N1CCc2[nH]cnc2[C@H]1c1nc2ccccc2s1", "note": "[Example 1871]", "AC50": "< 500"}, {"smiles": "O=C(c1cnn2ccc(Br)cc12)N1CCc2[nH]cnc2[C@H]1c1nc2cccc(F)c2s1", "note": "[Example 1283]", "AC50": "< 500"}, {"smiles": "O=C(c1cnn(C2CC2)c1C(F)F)N1CCc2[nH]cnc2[C@@H]1c1nc2c(F)cccc2s1", "note": "[Example 2000, (R)-(1-cyclopropyl-5-(difluoromethyl)-1H-pyrazol-4-yl)(4-(4-fluorobenzo[d]thiazol-2-yl)-6,7-dihydro-1H-imidazo[4,5-c]pyridin-5(4H)-yl)methanone]", "AC50": "1000 to 5000"}, {"smiles": "O=C(CC1CC1)N1CCc2[nH]cnc2[C@@H]1c1nc2ccc(F)cc2s1", "note": "[Example 1118, (R)-2-cyclopropyl-1-(4-(6-fluorobenzo[d]thiazol-2-yl)-6,7-dihydro-1H-imidazo[4,5-c]pyridin-5(4H)-yl)ethanone]", "AC50": "> 5000"}, {"smiles": "O=C(c1cnco1)N1CCc2[nH]cnc2[C@H]1c1nc2ccccc2s1", "note": "[Example 1097]", "AC50": "500 to 1000"}, {"smiles": "O=C(c1cnc(-c2ccccc2)s1)N1CCc2[nH]cnc2[C@H]1c1nc2ccccc2s1", "note": "[Example 1203]", "AC50": "500 to 1000"}, {"smiles": "O=C(c1oc(CCN2CC(F)C2)nc1C(F)(F)F)N1CCc2[nH]cnc2[C@H]1c1nc2c(F)cccc2s1", "note": "[Example 1665]", "AC50": "< 500"}, {"smiles": "Cn1cc(-c2nnc(C(=O)N3CCc4[nH]cnc4[C@H]3c3nc4c(F)cccc4s3)o2)cn1", "note": "[Example 1728, (S)-(4-(4-fluorobenzo[d]thiazol-2-yl)-6,7-dihydro-1H-imidazo[4,5-c]pyridin-5(4H)-yl)(5-(1-methyl-1H-pyrazol-4-yl)-1,3,4-oxadiazol-2-yl)methanone]", "AC50": "< 500"}, {"smiles": "COc1cccc(CCCC(=O)N2CCc3[nH]cnc3[C@H]2c2nc3ccccc3s2)c1", "note": "[Example 1013]", "AC50": "500 to 1000"}, {"smiles": "O=C(c1cnn2cc(C3CC3)ccc12)N1CCc2[nH]cnc2[C@H]1c1nc2ccccc2s1", "note": "[Example 1191]", "AC50": "500 to 1000"}, {"smiles": "O=C(c1ocnc1-c1ccccn1)N1CCc2[nH]cnc2[C@@H]1c1nc2c(F)cccc2s1", "note": "[Example 1524, (R)-(4-(4-fluorobenzo[d]thiazol-2-yl)-6,7-dihydro-1H-imidazo[4,5-c]pyridin-5(4H)-yl)(4-(pyridin-2-yl)oxazol-5-yl)methanone]", "AC50": "> 5000"}, {"smiles": "O=C(c1nc(Cl)cs1)N1CCc2[nH]cnc2[C@H]1c1nc2ccccc2s1", "note": "[Example 1057]", "AC50": "500 to 1000"}, {"smiles": "Cn1nc(Cl)nc1C(=O)N1CCc2[nH]cnc2[C@H]1c1nc2ccccc2s1", "note": "[Example 1937]", "AC50": "500 to 1000"}]}, {"target": "T1, human PAH with the R408W mutation", "test": "Cell Based Phenylalanine Flux Assay", "conditions": "A375 cells expressing human R408W PAH; 24 hrs with compound; 13C-Tyrosine by LC-MS; average where tested multiple times; read-out: AC50", "units": {"AC50": "nM"}, "values": [{"smiles": "O=C(c1cnn2cc(C=Cc3ccccc3)ccc12)N1CCc2[nH]cnc2C1c1nc2ccccc2s1", "note": "(stereo not drawn)", "AC50": "> 5000"}, {"smiles": "O=C(c1ccon1)N1CCc2[nH]cnc2C1c1nc2ccc(F)cc2[nH]1", "note": "(stereo not drawn)", "AC50": "> 5000"}, {"smiles": "O=C(c1ccno1)N1CCc2[nH]cnc2C1c1nc2ccc(F)cc2s1", "note": "(stereo not drawn)", "AC50": "> 5000"}, {"smiles": "O=C(CCc1ccccc1)N1CCc2[nH]cnc2C1c1nc2ccccc2[nH]1", "note": "(stereo not drawn)", "AC50": "1000 to 5000"}, {"smiles": "COCCc1ncc(C(=O)N2CCc3[nH]cnc3C2c2nc3ccccc3s2)o1", "note": "(stereo not drawn)", "AC50": "> 5000"}, {"smiles": "COc1cccc(C(=O)N2CCc3[nH]cnc3[C@H]2c2nc3ccccc3[nH]2)c1", "note": "[(S)-(4-(1H-benzo[d]imidazol-2-yl)-1,4,6,7-tetrahydro-5H-imidazo[4,5-c]pyridin-5-yl)(3-methoxyphenyl)methanone]", "AC50": "1000 to 5000"}, {"smiles": "O=C(c1nc2ccccc2s1)N1CCc2[nH]cnc2C1c1nc2cccc(F)c2s1", "note": "(stereo not drawn)", "AC50": "> 5000"}, {"smiles": "O=C(C=Cc1ccccc1)N1CCc2[nH]cnc2C1c1nc2ccccc2[nH]1", "note": "(stereo not drawn)", "AC50": "1000 to 5000"}, {"smiles": "Cc1nc(N2CCN(C)CC2)oc1C(=O)N1CCc2[nH]cnc2C1c1nc2c(F)cccc2s1", "note": "(stereo not drawn)", "AC50": "1000 to 5000"}, {"smiles": "COCCNc1nnc(C(=O)N2CCc3[nH]cnc3C2c2nc3ccccc3s2)o1", "note": "(stereo not drawn)", "AC50": "1000 to 5000"}, {"smiles": "O=C(c1nc2ccccc2s1)N1CCc2nc[nH]c2C1c1nc2ccc(Br)cc2s1", "note": "(stereo not drawn)", "AC50": "> 5000"}, {"smiles": "O=C(Cc1ccccn1)N1CCc2[nH]cnc2C1c1nc2ccccc2s1", "note": "(stereo not drawn)", "AC50": "1000 to 5000"}]}]}
